Reference: patent US11136547B2, “Mesoderm induction method having high blood cell differentiation capacity” (Kyoto University, priority 2016, dated 2021)
Entries after “also recorded” stand apart in the source; their conditions may differ.

Assays:
[1] = system: KhES3 and H1 cells; assay: Intermediate step intervention in C3H10T1/2 co-culture: occurrence of CD43+ blood cells on day 10; type: cell-based, human; settings: factor added in intermediate step days 4 to 7, in the presence of VEGF; compared with control/DMSO group; n=3
Method: (§1) Human ES cells that had been maintenance cultured in MEF were detached from the bottom of the dish in colony form as at the time of passage, and seeded on an inactivated C3H10T1/2 dish that had been prepared the previous day. The seeding rate was roughly 5×10^4 to 2×10^5 cells per 10-cm dish, although this is an estimate because the cells could not be counted. The medium was blood cell differentiation medium to which VEGF had been added to a final concentration of 20 ng/mL. Single cells were collected using 0.05% trypsin EDTA as necessary, the cells were counted, Y27632 was added to […], and the cells were differentiated as single cells.
When analyzing cells during differentiation, the culture supernatant was removed, the cells were washed twice with PBS, and 2 mL/dish of 0.25% trypsin EDTA was added and incubated for 5 minutes at 37° C. […] Blood cell differentiation medium was added to stop the reaction, and after centrifugation and removal of the supernatant, the cells were suspended in the necessary medium and analyzed.
(§2) Cells in a single-cell state were prepared as necessary, and fluorescent labeled antibodies were also included as necessary in amounts matching the cell numbers. […] These were then diluted with SM and centrifuged, the supernatant was removed, and the cells were suspended in the necessary amount of SMPI and analyzed. […]

[2] = system: KhES3 and H1 cells; assay: Initial step intervention in C3H10T1/2 co-culture: occurrence of CD56+APJ+ mesodermal cells on day 4 (flow cytometry); type: cell-based, human; settings: factor added on days 0 to 4; co-culture with C3H10T1/2; compared with control group; n=3
Method: as §1
When analyzing cells during differentiation, the culture supernatant was removed, the cells were washed twice with PBS, and 2 mL/dish of 0.25% trypsin EDTA was added and incubated for 5 minutes at 37° C. The cells were separated into single cells by pipetting with a Pipetman (p1000), and collected in a 15 mL centrifuge tube. Blood cell differentiation medium was added to stop the reaction, and after centrifugation and removal of the supernatant, the cells were suspended in the necessary medium and analyzed.
as §2
Taking cell surface markers as an evaluation standard, KhES3 and H1 cells were used to investigate what changes are seen in the occurrence of CD56+APJ+ cells due to interventions in the initial step. […] For the added concentrations of each factor, the maximum concentration was determined with reference to previous reports, and this was then diluted to investigate concentration (Inman, G. J. et al., Mol. Pharmacol. 62, 65-74 (2002); Xu, R.-H. et al., Nat Meth 2, 185-190 (2005); Huang, S.-M. A. et al., Nature 461, 614-620 (2009)).

Row | Molecule | percentage occurrence of blood cells (CD43+) on day 10 [1] | occurrence of CD56+APJ+ mesodermal cells on day 4 [2]
1 | NC(=O)c1ccc(-c2nc(-c3ccc4c(c3)OCO4)c(-c3ccccn3)[nH]2)cc1 [SB431542] | increased; also recorded: significantly improved | sharp drop in the ratio of CD56+APJ+ cells at the low concentration point; also recorded: significant decrease in the mesodermal cell population
2 | Oc1nc(-c2ccc(C(F)(F)F)cc2)nc2c1CSCC2 [XAV939] |  | reduction in CD56+APJ+ cells was confirmed; also recorded: tended to decrease
3 | bFGF: basic fibroblast growth factor | tended to be better | 
4 | NOGGIN: physiological BMP antagonist (protein, UniProt Q13253 28-232, looked up) Noggin: QHYLHIRPAPSDNLPLVDLIEHPDPIFDPKEKDLNETLLRSLLGGHYDPGFMATSPPEDRPGGGGGAAGGAEDLAELDQLLRQRPSGAMPSEIKGLEFSEGLAQGKKQRLSKKLRRKLQMWLWSQTFCPVLYAWNDLGSRFWPRYVKVGSCFSKRSCSVPEGMVCKPSKSVHLTVLRWRCQRRGGQRCGWIPIQYPIISECKCSC |  | drop in CD56+APJ+ cells was confirmed, but the effect was limited; also recorded: decrease in the mesodermal cell population
